Results from patent publication US9901592B2 (priority 2008, dated 2018).
Values after ≈ are worked out from the molar mass of the structure shown. Where two headings read alike, the source gives them in different places.

Key:
S. pneumoniae [1] = assay: neutropenic mouse thigh infection; assay type: in vivo; conditions: PO
Method: Example. Neutropenic Mouse Thigh Infection. Mice were rendered neutropenic with IP injections of cyclophosamide at day −4 and day −1 of 150 mg/Kg and 100 mg/Kg, respectively. On day 0 mice were infected with approximately 5×10^5 CFU/ml of bacteria in a 0.1 ml volume into the right thigh. At 1.5 hours post infection mice received treatment via oral gavage. One group of infected mice were euthanized and thigh processed for bacterial titers to serve as T=0 controls. Twenty-four hours post treatment, the remaining mice were euthanized, thighs aseptically removed, weighed, homogenized, serially diluted and plated on bacterial growth media. CFUs per gram of thigh were calculated after overnight incubation of bacterial plates. The amount of test article required to achieve 1, 2, and 3 loge reductions from 24 hour control thighs were calculated. Additional studies were performed that fractionated the single treatment dose (Q24) into two (Q12), three (Q8) and four (Q6) equivalent doses to determine the pharmacodynamic nature of this compound. Further analysis includes static dose, EC50, 1 log kill and maximal effect (Emax).

S. pyogenes [2] = assay: mouse systemic infection model (PD50); assay type: in vivo
streptococci = assay: organism not typed; assay type: cell-based
S. pyogenes ATCC 8668 = assay: mouse subcutaneous abscess model; assay type: in vivo; conditions: 48 hr. post infection
Method: Example. Mouse Subcutaneous Abscess. Bacteria were prepared from an overnight plate culture by re-suspending in saline and adjusting the suspension to a 0.1 OD at 625 nm of a 1:10 dilution. The adjusted bacterial suspension was mixed 1:2 with cyclodextran beads prepared as per package instructions. The right flanks of the mice were shaven and injected subcutaneously with 0.2 ml of the bacterial inoculum. Two hours post infection mice were treated via oral gavage with either test article or control drug. 48 hours post infection, mice were euthanized, abscesses aseptically removed, homogenized, serially diluted and plated on bacterial growth agar. After overnight incubation, colonies were counted and CFUs/gram of abscess were determined.
Example. Mouse Subcutaneous Abscess˜S. pyogenes ATCC 8668 (Average Log10 CFU/gram of Abscess). Abscess processing 48 hours post infection.

S. pneumoniae [3] = assay: microbe, parasite or virus in culture; assay type: cell-based; conditions: for MIC: Streptococcus pneumoniae
N. meningitidis = assay: MIC, CLSI broth microdilution, invasive isolates; assay type: cell-based; conditions: Neisseria meningitidis; 62 N. meningitidis isolates
Method: Example. […] Colonization of the nasopharynx (NP) by NM can lead to invasive meningococcal disease. Chemoprophylaxis is used to eradicate NP colonization and prevent transmission to nonimmune contacts. […] 62 isolates (91.9% blood culture) of NM were collected from 29 medical centers in North and South America and Europe (1997-2008). […] Serological identification was performed for serogroups (SGs) B, C, Y and W135.

S. pyogenes [4] = assay: MIC of the strains of the mouse systemic infection model; assay type: cell-based; conditions: Streptococcus pyogenes
[5] = S. pyogenes (macrolide susceptible)

With CC[C@H]1OC(=O)[C@H](C)[C@@H](O[C@H]2C[C@@](C)(OC)[C@@H](O)[C@H](C)O2)[C@H](C)[C@@H](O[C@@H]2O[C@H](C)C[C@H](N(C)C)[C@H]2O)[C@](C)(OC)C[C@@H](C)C(=O)[C@H](C)[C@@H](O)[C@]1(C)O [CLR, clarithromycin] the “Max. change in log10CFUs from 24 hr. controls” value (S. pneumoniae [1]; S. pneumoniae 1629) was −5.75 log10CFUs, the “Dose for 2 log10 Reduction from 24 hour controls” value (S. pneumoniae [1]; S. pneumoniae 1629, QD) was 9.0 mg/Kg and the “Max. change in log10CFUs from 24 hr. controls” value (S. pneumoniae [1]; S. pneumoniae 6303) was −5.20 log10CFUs. The PD50 (S. pyogenes [2]; S. pyogenes (erythromycin R)) was 22.8 mg/kg, the PD50 (S. pyogenes [2]; [5]) was 24.8 mg/kg and the MIC50 (streptococci) was 0.03 µg/mL (≈ 0.0401 µM). The MIC90 (streptococci) was 0.03 µg/mL (≈ 0.0401 µM), the “MIC Range” value (streptococci) was “≦0.008-0.25 μg/ml” and the “Average Log10 CFU/gram of Abscess” value (S. pyogenes ATCC 8668; 10 mg/Kg) was 7.63 Log10 CFU/gram. For the same molecule, the “Average Log10 CFU/gram of Abscess” value (S. pyogenes ATCC 8668; 20 mg/Kg) was 7.82 Log10 CFU/gram, the “strains with resistant clones / strains tested” value (S. pneumoniae [3]; S. pneumoniae) was 5/6 and the “Parental MICs” value (S. pneumoniae [3]; S. pneumoniae, 8 strains with varying resistotypes) was 0.016 to 16 µg/mL. The MIC (S. pneumoniae [3]; read-out: Initial MIC, strain 24 Macrolide-R [erm(B)], parent) was > 64 µg/mL, the MIC (S. pneumoniae [3]; read-out: Initial MIC, strain 1076 Macrolide-R [erm(B)&mef(A)], parent) was > 64 µg/mL and the MIC (S. pneumoniae [3]; read-out: Initial MIC, strain 1077 Macrolide-S, parent) was 0.016 µg/mL (≈ 0.0214 µM). It also gave an MIC (S. pneumoniae [3]; read-out: Initial MIC, strain 1635 Macrolide-R [erm(A)], parent) of 0.5 µg/mL (≈ 0.668 µM), an MIC (S. pneumoniae [3]; read-out: Initial MIC, strain 2686 Macrolide-R [L4 mutation], parent) of 8 µg/mL (≈ 10.7 µM) and an MIC (S. pneumoniae [3]; read-out: Initial MIC, strain 3009 Macrolide-R [23SrRNA mutation], parent) of 16 µg/mL (≈ 21.4 µM). The MIC (S. pneumoniae [3]; read-out: Initial MIC, strain 3665 Macrolide-R [mef(A)], parent) was 2 µg/mL (≈ 2.67 µM), the MIC (S. pneumoniae [3]; read-out: Initial MIC, strain 7127 Macrolide-S [S20N in L4, A105V in L22], parent) was 0.03 µg/mL (≈ 0.0401 µM) and the MIC (S. pneumoniae [3]; read-out: MIC of parents of resistant clones, S. pneumoniae (CEM-101: 7 strains)) was 0.03 to 16 µg/mL. For the same molecule, the MIC (S. pneumoniae [3]; read-out: Selected Resistance MIC, strain 1077 Macrolide-S, after serial passages in the drug) was 0.008 µg/mL (≈ 0.0107 µM), the MIC (S. pneumoniae [3]; read-out: Selected Resistance MIC, strain 1635 Macrolide-R [erm(A)], after serial passages in the drug) was > 64 µg/mL and the MIC (S. pneumoniae [3]; read-out: Selected Resistance MIC, strain 2686 Macrolide-R [L4 mutation], after serial passages in the drug) was > 64 µg/mL. The MIC (S. pneumoniae [3]; read-out: Selected Resistance MIC, strain 3009 Macrolide-R [23SrRNA mutation], after serial passages in the drug) was > 64 µg/mL, the MIC (S. pneumoniae [3]; read-out: Selected Resistance MIC, strain 3665 Macrolide-R [mef(A)], after serial passages in the drug) was 16 µg/mL (≈ 21.4 µM) and the MIC (S. pneumoniae [3]; read-out: Selected Resistance MIC, strain 7127 Macrolide-S [S20N in L4, A105V in L22], after serial passages in the drug) was 16 µg/mL (≈ 21.4 µM). For the same molecule, the “days until resistant clones (MIC increase)” value (S. pneumoniae [3]; daily passages, min. 14, max. 50) was 14 to 49 days, the “Retest MIC after 10 Antibiotic-free Subcultures” value (S. pneumoniae [3]; strain 24 Macrolide-R [erm(B)], clone selected with CEM-101) was >64 µg/mL and the “Retest MIC after 10 Antibiotic-free Subcultures” value (S. pneumoniae [3]; strain 24 Macrolide-R [erm(B)], clone selected with TEL) was >64 µg/mL. For the same molecule, the “Retest MIC after 10 Antibiotic-free Subcultures” value (S. pneumoniae [3]; strain 1076 Macrolide-R [erm(B)&mef(A)], clone selected with CEM-101) was >64 µg/mL, the “Retest MIC after 10 Antibiotic-free Subcultures” value (S. pneumoniae [3]; strain 1076 Macrolide-R [erm(B)&mef(A)], clone selected with TEL) was >64 µg/mL and the “Retest MIC after 10 Antibiotic-free Subcultures” value (S. pneumoniae [3]; strain 1077 Macrolide-S, clone selected with AZI) was >64 µg/mL. For the same molecule, the “Retest MIC after 10 Antibiotic-free Subcultures” value (S. pneumoniae [3]; strain 1077 Macrolide-S, clone selected with CEM-101) was 0.06 µg/mL, the “Retest MIC after 10 Antibiotic-free Subcultures” value (S. pneumoniae [3]; strain 1077 Macrolide-S, clone selected with CLN) was >64 µg/mL and the “Retest MIC after 10 Antibiotic-free Subcultures” value (S. pneumoniae [3]; strain 1077 Macrolide-S, clone selected with TEL) was >64 µg/mL. For the same molecule, the “Retest MIC after 10 Antibiotic-free Subcultures” value (S. pneumoniae [3]; strain 1635 Macrolide-R [erm(A)], clone selected with AZI) was >64 µg/mL, the “Retest MIC after 10 Antibiotic-free Subcultures” value (S. pneumoniae [3]; strain 1635 Macrolide-R [erm(A)], clone selected with CEM-101) was 1 µg/mL and the “Retest MIC after 10 Antibiotic-free Subcultures” value (S. pneumoniae [3]; strain 1635 Macrolide-R [erm(A)], clone selected with CLN) was 0.5 µg/mL. For the same molecule, the “Retest MIC after 10 Antibiotic-free Subcultures” value (S. pneumoniae [3]; strain 1635 Macrolide-R [erm(A)], clone selected with CLR) was >64 µg/mL, the “Retest MIC after 10 Antibiotic-free Subcultures” value (S. pneumoniae [3]; strain 2686 Macrolide-R [L4 mutation], clone selected with CEM-101) was 32 µg/mL and the “Retest MIC after 10 Antibiotic-free Subcultures” value (S. pneumoniae [3]; strain 2686 Macrolide-R [L4 mutation], clone selected with CLR) was >64 µg/mL. For the same molecule, the “Retest MIC after 10 Antibiotic-free Subcultures” value (S. pneumoniae [3]; strain 2686 Macrolide-R [L4 mutation], clone selected with TEL) was 16 µg/mL, the “Retest MIC after 10 Antibiotic-free Subcultures” value (S. pneumoniae [3]; strain 3009 Macrolide-R [23SrRNA mutation], clone selected with CEM-101) was >64 µg/mL and the “Retest MIC after 10 Antibiotic-free Subcultures” value (S. pneumoniae [3]; strain 3009 Macrolide-R [23SrRNA mutation], clone selected with CLR) was 64 µg/mL. For the same molecule, the “Retest MIC after 10 Antibiotic-free Subcultures” value (S. pneumoniae [3]; strain 3665 Macrolide-R [mef(A)], clone selected with CEM-101) was 4 µg/mL, the “Retest MIC after 10 Antibiotic-free Subcultures” value (S. pneumoniae [3]; strain 3665 Macrolide-R [mef(A)], clone selected with CLR) was 8 µg/mL and the “Retest MIC after 10 Antibiotic-free Subcultures” value (S. pneumoniae [3]; strain 3665 Macrolide-R [mef(A)], clone selected with TEL) was 2 µg/mL. For the same molecule, the “Retest MIC after 10 Antibiotic-free Subcultures” value (S. pneumoniae [3]; strain 7127 Macrolide-S [S20N in L4, A105V in L22], clone selected with AZI) was 0.5 µg/mL, the “Retest MIC after 10 Antibiotic-free Subcultures” value (S. pneumoniae [3]; strain 7127 Macrolide-S [S20N in L4, A105V in L22], clone selected with CEM-101) was 0.125 µg/mL and the “Retest MIC after 10 Antibiotic-free Subcultures” value (S. pneumoniae [3]; strain 7127 Macrolide-S [S20N in L4, A105V in L22], clone selected with CLN) was 0.016 µg/mL. The “Retest MIC after 10 Antibiotic-free Subcultures” value (S. pneumoniae [3]; strain 7127 Macrolide-S [S20N in L4, A105V in L22], clone selected with CLR) was 16 µg/mL, the “Retest MIC after 10 Antibiotic-free Subcultures” value (S. pneumoniae [3]; strain 7127 Macrolide-S [S20N in L4, A105V in L22], clone selected with TEL) was 0.06 µg/mL and the MIC (N. meningitidis) was 0.015 to 0.25 µg/mL (≈ 0.0201 to 0.334 µM). For the same molecule, the MIC50 (N. meningitidis) was 0.03 µg/mL (≈ 0.0401 µM), the MIC90 (N. meningitidis) was 0.12 µg/mL (≈ 0.16 µM) and the MIC (S. pyogenes [4]; S. pyogenes (erythromycin R)) was 1 µg/mL. For the same molecule, the MIC (S. pyogenes [4]; [5]) was 0.015 µg/mL.
